The structures appear in SMILES notation.

Experiment [1] has as its system patients with persistent AF. The following applies: started 3 weeks before electrical cardioversion and combined with amiodarone; cited from earlier work.
Experiment [2] has as its system patients shortly after an acute myocardial infarction with depressed LV function. The following applies: trandolapril versus placebo, 2-4 years of follow-up in TRACE; cited from earlier work.
In experiment [3] the test system is atrial refractory period during rapid atrial pacing. The following applies: in vivo; cited from earlier work.
Experiment [4] deals with animals with HF induced by rapid ventricular pacing. The following applies: given at the onset of pacing, animals followed for 5 weeks; cited from earlier work.
Experiment [5] has as its system patients with left ventricular dysfunction. The experiment can be described thus: Retrospective analysis of Montreal Heart Institute patients randomized in SOLVD: development of atrial fibrillation, enalapril versus placebo. The class given is in vivo, human. The text has this:
The patients of the Montreal Heart Institute who were enrolled in the SOLVD trials constituted the study population. SOLVD was a multicenter, double-blinded, randomized, placebo-controlled trial which evaluated the effect of the ACEi enalapril on survival in patients with left ventricular (LV) dysfunction (ejection fraction≦35%).^12,13 The design of the study has been reported previously.^13 Briefly, from June 1986 to August 1991, 4228 patients with asymptomatic or mildly symptomatic (not requiring treatment with digitalis, diuretics or vasodilators for heart failure at study entry) LV dysfunction (LVEF≦0.35) were included in the prevention trial and 2569 patients with overt congestive HF in the treatment trial.^14 Patients were randomized to enalapril (5-20 mg/day) or placebo. Exclusion criteria included: age>80 years, unstable angina, myocardial infarction in the previous month, severe pulmonary disease, renal insufficiency (creatinine level>[…]), current ACEi use or intolerance to ACEi. Follow-up visits were scheduled 2 and 6 weeks after randomization and every 4 months until the end of the study, for a mean follow-up of 3.4 and 3.1 years for the treatment and prevention trials, respectively.
Baseline characteristics, past medical history and drug therapy at the time of enrolment were obtained from the SOLVD databases. Serial electrocardiograms (ECG) were not collected specifically for the SOLVD trials. However, the routine clinical follow-up of patients at our institution usually included a 12-lead ECG. Thus, the medical file of each patient was carefully reviewed and a single experienced cardiologist, blinded to treatment allocation, interpreted every ECG.
AF was defined as rapid oscillations or fibrillatory waves that vary in size, shape and timing, associated with an irregular, frequently rapid ventricular response. For the purposes of the study, paroxysmal AF was defined as episodes in which the patient reverted to sinus rhythm spontaneously, with medical therapy orwith a single cardioversion, whereas patients who remained in AF despite changes in medical therapy and/or cardioversion were defined as persistent AF. Episodes occurring during a 24-hour Holter monitoring were also considered. The end-points were the development and time to first occurrence of AF on either one 12-lead ECG and/or a 24-hour Holter monitoring recorded during any available follow-up visits (including research, outpatient clinic or emergency room visits). Participants with significant supraventricular arrhythmia on the baseline ECG (AF or flutter) were excluded. Patients with a history of arrhythmia (either supraventricular or ventricular) but who were in sinus rhythm on the ECG at the time of randomization were included.
The baseline characteristics of the two groups were compared using student t-test for continuous variables and chi-square test for categorical variables. The incidence of AF between the two groups was compared with the chi-square test. Time to the first occurrence of AF during the follow-up was analyzed with Kaplan-Meier curves and compared with the log-rank test. To analyze the effect of enalapril on development of AF, a Cox regression analysis was used to take into account the effect of potential confounding baseline variables (age, sex, NYHA class, history of supraventricular or ventricular arrhythmia, ischemic etiology, diabetes and ejection fraction) and time-dependent variables (systolic blood pressure, diastolic blood pressure, pulse pressure, serum potassium and drug therapy). Cox proportional-hazard models were performed for each variable with treatment (enalapril) forced in all models. Variables with a p-value≦0.2 were included in a multivariate Cox proportional hazard model.
Subgroup analysis was conducted with chi-square test. Preliminary assumptions were verified prior to all analysis. A p-value≦0.05 was considered statistically significant. […]

Where [6] appears, read: patients with AF in enalapril group, n = 10.

On to `CCCCC1=NC2(CCCC2)C(=O)N1Cc1ccc(-c2ccccc2-c2nnn[nH]2)cc1` [irbesartan], for which, in experiment [1], the “effect on AF recurrence” value is “beneficial effect”.

As for `CCOC(=O)[C@H](CCc1ccccc1)N[C@@H](C)C(=O)N1[C@H](C(=O)O)C[C@H]2CCCC[C@@H]21` [trandolapril], the “absolute risk reduction on the incidence of AF” value in experiment [2] is reported as 2.5%.

Consider `C[C@H](CS)C(=O)N1CCC[C@H]1C(=O)O` [captopril], for which the “shortening of the atrial refractory period during rapid atrial pacing” value in experiment [3] was “prevented”.

As for `CCOC(=O)[C@H](CCc1ccccc1)N[C@@H](C)C(=O)N1CCC[C@H]1C(=O)O` [enalapril], in experiment [4], the atrial fibrosis result is reported as “significant reduction”, the “atrial structural changes in HF induced by rapid ventricular pacing” value is on record as “attenuated” and the “vulnerability of the animals to AF” value was “decreased vulnerability”. In addition, the “patients presenting ≥1 episode of AF” value in experiment [5] (2.9 years of follow-up, enalapril group n = 186, 5-20 mg/day, placebo 45) came out at 10 patients. Besides, the “patients presenting ≥1 episode of AF (percentage)” value in experiment [5] (2.9 years of follow-up, enalapril group n = 186, placebo 24%, p<0.001) was 5.4%. In addition, the “probability of remaining in sinus rhythm during follow-up” value in experiment [5] (Kaplan-Meier, enalapril versus placebo, p<0.0001, FIG. 1) is on record as “significantly higher”. Besides, the “Hazard ratio for incidence of AF, Cox multivariate analysis” value in experiment [5] (allocation to enalapril, 95% CI 0.11-0.44, p<0.0001) is 0.22. The “risk of developing AF in patients with LV dysfunction” value in experiment [5] (chronic ACEi therapy with enalapril) is given as “markedly reduces”. Moreover, the “absolute risk reduction of AF” value in experiment [5] (enalapril versus placebo, 2.9 years of follow-up) was found to be 18.6%. In experiment [5] (n=21 excluded, placebo 23%, p<0.0001), the “patients developing AF (percentage), patients with a history of supraventricular arrhythmia excluded” value was found to be 4.5%. Further, the “patients developing AF, patients with a history of supraventricular arrhythmia excluded” value in experiment [5] (n=21 excluded, placebo 40 patients) is listed as 8 patients. In addition, in experiment [5] (setting [6]), the “AF Detection: 12-leads ECG (number)” value came to 10, the “AF Detection: 12-leads ECG (percentage)” value is on record as 100%, the “AF Detection: Holter monitoring (number)” value is recorded as 0 (0%) and the “AF Detection: Holter monitoring (percentage)” value is on record as 0 (0%). In experiment [5] (setting [6]), the “AF Requiring: electrical cardioversion (number)” value was 1, the “AF Requiring: electrical cardioversion (percentage)” value is given as 10%, the “AF Requiring: hospitalization (number)” value stood at 8 and the “AF Requiring: hospitalization (percentage)” value is on record as 80%. For the same compound, in experiment [5] (setting [6]), the “Paroxysmal AF (number)” value is listed as 8, the “Paroxysmal AF (percentage)” value was determined as 80%, the “Persistent AF (number)” value stood at 2 and the “Persistent AF (percentage)” value is listed as 20%. Further, the “patients developing AF, SOLVD prevention arm” value in experiment [5] (prevention arm (251 patients), placebo 31 patients) stood at 4 patients. The “patients developing AF (percentage), SOLVD prevention arm” value in experiment [5] (prevention arm, placebo 24.6%, p<0.0001) was 3.2%. The “patients with CHF needed to be treated to prevent one episode of AF” value in experiment [5] (treated for 2.9 years) is 5 patients. Besides, in experiment [5] (treatment arm (123 patients), placebo 14), the “patients developing AF, SOLVD treatment arm” value is 6 patients. The “patients developing AF (percentage), SOLVD treatment arm” value in experiment [5] (treatment arm, placebo 22.6%, P=0.055) is given as 9.8%.

On to `CCOc1nc2cccc(C(=O)O)c2n1Cc1ccc(-c2ccccc2-c2nnn[nH]2)cc1` [candesartan], for which the “shortening of the atrial refractory period during rapid atrial pacing” value in experiment [3] was “prevented”.

(Values after US20040255959A1, “Method and compounds to decrease the incidence of atrial fibrillation (AF) in patients with left ventricular dysfunction” (priority 2003, published 2004).)
